Experimental data taken from patent US9610350B2, “Broad spectrum preservation blends” (Arch Personal Care Products, L.P., priority 2009, dated 2017).

Key:
Assay type in all cases: cell-based
[1] = system: mixed Pseudomonas aeruginosa (ATCC 9027) and Burkholderia cepacia (ATCC 25416); test: CTFA-type challenge test, mixed P. aeruginosa + B. cepacia inoculum; conditions: Make-up Remover at pH 8.1 with 0.83% Benzyl Alcohol; Challenge #2; 48 Hours
[2] = system: Candida albicans (ATCC 10231); test: CTFA-type challenge test, C. albicans inoculum; conditions: Make-up Remover at pH 8.1 with 0.83% Benzyl Alcohol
[3] = system: mixed Klebsiella pneumoniae (ATCC 4352) and Enterobacter gergoviae (ATCC 33028); test: CTFA-type challenge test, mixed K. pneumoniae + E. gergoviae inoculum; conditions: Make-up Remover at pH 8.1 with 0.83% Benzyl Alcohol; Challenge #2; 48 Hours
[4] = system: mixed Pseudomonas aeruginosa (ATCC 9027) and Burkholderia cepacia (ATCC 25416); test: CTFA-type challenge test, mixed P. aeruginosa + B. cepacia inoculum; conditions: Make-up Remover at pH 8.1 with 0.83% Benzyl Alcohol
Source text: (§1) CTFA Challenge Test Procedure: A challenge protocol similar to the CTFA method was followed to assess efficacy against a broad spectrum of microorganisms. The five separate inocula were: Staphylococcus aureus (ATCC 6538), mixed Pseudomonas aeruginosa (ATCC 9027) and Burkholderia cepacia (ATCC 25416), mixed Klebsiella pneumoniae (ATCC 4352) and Enterobacter gergoviae (ATCC 33028), Candida albicans (ATCC 10231), and a mixture of molds: Aspergillus niger (ATCC 16404) and 2 Penicillium sp. isolated from cosmetic products. Samples (35 grams each) were inoculated with approximately 2,000,000 bacteria per gram or 100,000 yeast cells or mold spores per gram. Individual challenges were prepared from overnight slants of bacteria and yeast cultures and from heavily sporulating mold cultures, 7 to 10 days old. All samples were plated quantitatively for viable organisms after 24 hours and weekly for up to 4 weeks. Samples inoculated with mold spores were also plated after 48 hours. Samples were re-challenged after four weeks (or sooner where appropriate) and the same sampling regime followed.
(§2) Recommended “Pass” Criteria: CTFA recommends at least a 99.9% reduction of vegetative bacteria and at least a 90% reduction of yeasts and molds within 7 days following each challenge with no increase in count thereafter.
(§3) The preservative concentrates were added to these formulations to give a final concentration of 1%. […]

[5] = system: Staphylococcus aureus (ATCC 6538); test: CTFA-type challenge test, S. aureus inoculum; conditions: Make-up Remover at pH 8.1 with 0.83% Benzyl Alcohol
[6] = system: mixture of molds: Aspergillus niger (ATCC 16404) and 2 Penicillium sp.; test: CTFA-type challenge test, mixed mold inoculum; conditions: for Colony Forming Units per Gram (CFU/g), Mixed Molds: Make-up Remover at pH 8.1 with 0.83% Benzyl Alcohol
Source text: as §1, §2, §3
To determine if the unexpected activity of ECT 4 at high pH (8.1) can be attributed solely to the activity of benzyl alcohol the high pH make-up remover was preserved with 1% ECT4 and with 0.83% benzyl alcohol (equivalent amount found in 1% ECT4).

[7] = system: mixed Klebsiella pneumoniae (ATCC 4352) and Enterobacter gergoviae (ATCC 33028); test: CTFA-type challenge test, mixed K. pneumoniae + E. gergoviae inoculum; conditions: Make-up Remover at pH 8.1 with 0.83% Benzyl Alcohol
Source text: as §1, §2, §3

[8] = High pH Make-up Remover (pH 8.1), 0.83% benzyl alcohol

OCc1ccccc1 [benzyl alcohol]
Colony Forming Units per Gram (CFU/g), P. aeruginosa + B. cepacia [1]: <10 CFU/g
Colony Forming Units per Gram (CFU/g), C. albicans ([2]; Challenge #1, 7 Days): 1.6 × 10^2 CFU/g
Colony Forming Units per Gram (CFU/g), C. albicans ([2]; Challenge #1, 14 Days): <10 CFU/g
Colony Forming Units per Gram (CFU/g), C. albicans ([2]; Challenge #1, 21 Days): <10 CFU/g
Colony Forming Units per Gram (CFU/g), C. albicans ([2]; Challenge #1, 24 Hours): 3.1 × 10^4 CFU/g
Colony Forming Units per Gram (CFU/g), C. albicans ([2]; Challenge #1, 28 Days): <10 CFU/g
Colony Forming Units per Gram (CFU/g), C. albicans ([2]; Challenge #2, 7 Days): <10 CFU/g
Colony Forming Units per Gram (CFU/g), C. albicans ([2]; Challenge #2, 14 Days): <10 CFU/g
Colony Forming Units per Gram (CFU/g), C. albicans ([2]; Challenge #2, 21 Days): <10 CFU/g
Colony Forming Units per Gram (CFU/g), C. albicans ([2]; Challenge #2, 28 Days): <10 CFU/g
Colony Forming Units per Gram (CFU/g), C. albicans ([2]; Challenge #2, 48 Hours): <1.0 × 10^2 CFU/g
Colony Forming Units per Gram (CFU/g), K. pneumoniae + E. gergoviae [3]: <10 CFU/g
Colony Forming Units per Gram (CFU/g), P. aeruginosa + B. cepacia ([4]; Challenge #1, 7 Days): <10 CFU/g
Colony Forming Units per Gram (CFU/g), P. aeruginosa + B. cepacia ([4]; Challenge #1, 14 Days): <10 CFU/g
Colony Forming Units per Gram (CFU/g), P. aeruginosa + B. cepacia ([4]; Challenge #1, 21 Days): <10 CFU/g
Colony Forming Units per Gram (CFU/g), P. aeruginosa + B. cepacia ([4]; Challenge #1, 24 Hours): <10 CFU/g
Colony Forming Units per Gram (CFU/g), P. aeruginosa + B. cepacia ([4]; Challenge #1, 28 Days): <10 CFU/g
Colony Forming Units per Gram (CFU/g), P. aeruginosa + B. cepacia ([4]; Challenge #2, 7 Days): <10 CFU/g
Colony Forming Units per Gram (CFU/g), P. aeruginosa + B. cepacia ([4]; Challenge #2, 14 Days): <10 CFU/g
Colony Forming Units per Gram (CFU/g), P. aeruginosa + B. cepacia ([4]; Challenge #2, 21 Days): <10 CFU/g
Colony Forming Units per Gram (CFU/g), P. aeruginosa + B. cepacia ([4]; Challenge #2, 28 Days): <10 CFU/g
Colony Forming Units per Gram (CFU/g), S. aureus ([5]; Challenge #1, 7 Days): <10 CFU/g
Colony Forming Units per Gram (CFU/g), S. aureus ([5]; Challenge #1, 14 Days): <10 CFU/g
Colony Forming Units per Gram (CFU/g), S. aureus ([5]; Challenge #1, 21 Days): <10 CFU/g
Colony Forming Units per Gram (CFU/g), S. aureus ([5]; Challenge #1, 24 Hours): <10 CFU/g
Colony Forming Units per Gram (CFU/g), S. aureus ([5]; Challenge #1, 28 Days): <10 CFU/g
Colony Forming Units per Gram (CFU/g), S. aureus ([5]; Challenge #2, 7 Days): <10 CFU/g
Colony Forming Units per Gram (CFU/g), S. aureus ([5]; Challenge #2, 14 Days): <10 CFU/g
Colony Forming Units per Gram (CFU/g), S. aureus ([5]; Challenge #2, 21 Days): <10 CFU/g
Colony Forming Units per Gram (CFU/g), S. aureus ([5]; Challenge #2, 28 Days): <10 CFU/g
Colony Forming Units per Gram (CFU/g), S. aureus ([5]; Challenge #2, 48 Hours): <10 CFU/g
CTFA recommendations for a minimum of 90% mold reduction in 7 days [6, 8]: did not meet CTFA recommendations
Efficacy against the mixed mold challenge [6, 8]: not sufficiently efficacious
Colony Forming Units per Gram (CFU/g), Mixed Molds ([6]; Challenge #1, 7 Days): 3.0 × 10^4 CFU/g
Colony Forming Units per Gram (CFU/g), Mixed Molds ([6]; Challenge #1, 14 Days): 8.0 × 10^4 CFU/g
Colony Forming Units per Gram (CFU/g), Mixed Molds ([6]; Challenge #1, 21 Days): 1.5 × 10^4 CFU/g
Colony Forming Units per Gram (CFU/g), Mixed Molds ([6]; Challenge #1, 24 Hours): 2.1 × 10^5 CFU/g
Colony Forming Units per Gram (CFU/g), Mixed Molds ([6]; Challenge #1, 28 Days): 5.1 × 10^3 CFU/g
Colony Forming Units per Gram (CFU/g), Mixed Molds ([6]; Challenge #1, 48 Hours): 1.2 × 10^5 CFU/g
Colony Forming Units per Gram (CFU/g), Mixed Molds ([6]; Challenge #2, 7 Days): 3.4 × 10^3 CFU/g
Colony Forming Units per Gram (CFU/g), Mixed Molds ([6]; Challenge #2, 14 Days): 3.6 × 10^3 CFU/g
Colony Forming Units per Gram (CFU/g), Mixed Molds ([6]; Challenge #2, 21 Days): 9.0 × 10^3 CFU/g
Colony Forming Units per Gram (CFU/g), Mixed Molds ([6]; Challenge #2, 28 Days): 4.0 × 10^2 CFU/g
Colony Forming Units per Gram (CFU/g), Mixed Molds ([6]; Challenge #2, 48 Hours): 3.8 × 10^3 CFU/g
Colony Forming Units per Gram (CFU/g), K. pneumoniae + E. gergoviae ([7]; Challenge #1, 7 Days): <10 CFU/g
Colony Forming Units per Gram (CFU/g), K. pneumoniae + E. gergoviae ([7]; Challenge #1, 14 Days): <10 CFU/g
Colony Forming Units per Gram (CFU/g), K. pneumoniae + E. gergoviae ([7]; Challenge #1, 21 Days): <10 CFU/g
Colony Forming Units per Gram (CFU/g), K. pneumoniae + E. gergoviae ([7]; Challenge #1, 24 Hours): <10 CFU/g
Colony Forming Units per Gram (CFU/g), K. pneumoniae + E. gergoviae ([7]; Challenge #1, 28 Days): <10 CFU/g
Colony Forming Units per Gram (CFU/g), K. pneumoniae + E. gergoviae ([7]; Challenge #2, 7 Days): <10 CFU/g
Colony Forming Units per Gram (CFU/g), K. pneumoniae + E. gergoviae ([7]; Challenge #2, 14 Days): <10 CFU/g
Colony Forming Units per Gram (CFU/g), K. pneumoniae + E. gergoviae ([7]; Challenge #2, 21 Days): <10 CFU/g
Colony Forming Units per Gram (CFU/g), K. pneumoniae + E. gergoviae ([7]; Challenge #2, 28 Days): <10 CFU/g
